According to patent US20240398789A1, “PHARMACEUTICAL COMPOSITION FOR ENHANCING ANTI-TUMOR EFFECT OF EZH2 INHIBITOR AND USE THEREOF” (PEKING UNIVERSITY THIRD HOSPITAL, priority 2021, published 2024):

Legend:
[1] = tested on: melanoma B16F10 cells; test: IncuCyte S3 live-cell proliferation of B16F10 cells; assay type: cell-based
Experimental: (§1) FIG. 1: Hematological tumors are more sensitive to GSK126 than solid tumors. (A) Proliferation of B16F10, Huh7 and SMMC7721 cells in GSK126 (10-20 μM) treatment was monitored by Incucyte S3 with 6 replicates per group; (B) Viabilities of Daudi and THP-1cells after GSK126 (200 nM to 24 μM) treatment for 24 h and 48 h were measured by CCK-8 assay with 5 replicates per group; (C) Western blot (WB) analysis on B16F10 cells after 48 h without or with GSK126 treatment (6 μM, and 12 μM), with H3 used as an internal reference for histone. 5 to 6 replicates were established for each group, with *P<0.05, **P<0.01, and ***P<0.001, and ns for no statistical difference.
P=0.0108, P=0.0385, Kaplan-Meier survival analysis; (C) effect of telmisartan at different concentrations on the proliferation of U87 cells (left) and U251 cells (right) (3 replicates per group); (D) effect of fenofibrate at different concentrations on the proliferation of B16F10 cells (left) and 4T1 cells (right) (3 replicates per group); (E) FACS quantitative analysis of the percentage of cells positive for EdU (FITC+) staining 48 h after the telmisartan treatment on U87 and U251 cells. Single cells were first gated, followed by FITC+cells. The percentage of FITC+ cells was listed above the corresponding cell population. […]

[2] = tested on: hepatoma Huh7 cells; test: IncuCyte S3 live-cell proliferation of Huh7 cells; assay type: cell-based
Experimental: as §1
(§2) In order to accurately assess the responsiveness of solid tumor cells to EZH2 inhibitors, the effects of GSK126 at different concentrations on the proliferation of melanoma B16F10 cells and hepatoma Huh7 and SMMC-7721 cells were initially detected by IncuCyte S3® Live-Cell Analysis System.

[3] = tested on: hepatoma SMMC-7721 cells; test: IncuCyte S3 live-cell proliferation of SMMC-7721 cells; assay type: cell-based
Experimental: as §1
(§3) FIG. 6: Lipid-modulating drugs can enhance the inhibitory effect of GSK126 on cancer cells. […] 3 to 5 replicates were established for each group, with *P<0.05, **P<0.01, and ***P<0.001.
as §2

[4] = tested on: Burkitt's lymphoma cells (Daudi); test: CCK-8 cell proliferation assay, Daudi; assay type: cell-based
Experimental: as §1

[5] = tested on: THP-1 cells; test: CCK-8 cell proliferation assay, THP-1; assay type: cell-based; conditions: 10 μM GSK126 for 24 h and 48 h
Experimental: as §1

[6] = tested on: H3K27me3 level in B16F10 cells; test: Western blot of H3K27me3 in B16F10 cells; assay type: cell-based; conditions: GSK126 6 μM, 48 h, H3 internal reference
Experimental: as §1

[7] = tested on: melanoma cells B16F10; test: Cell scratch assay (migration) of B16F10 cells; assay type: cell-based; conditions: GSK126 10 μM, 36 h of culture, vs control group
Experimental: (§4) FIG. 2: Melanoma cells B16F10 are less sensitive to GSK126. (A) Cell scratch assay, showing the effect of GSK126 (10 μM) treatment on the migration capability of B16F10 cells, with 3 replicates per group; (B-C) the effect of GSK126 (10, 13, and 15 μM) on the apoptosis rate of B16F10 cells, as examined by flow cytometry (C) and Annexin V staining assay. 3 replicates were established for each group, with *P<0.05, **P<0.01, and ***P<0.001, and ns for no statistical difference.
(§5) Next, to further validate the effect of GSK126 at 10 μM on melanoma cells B16F10,scratch assay was conducted. […] In addition, to assess the anti-survival effect of GSK126, B16F10 cells were treated by GSK126 at different concentrations for different periods, and the apoptosis rate of the cells was analyzed by flow cytometry (FIG. 2B) and live-cell fluorescence imaging (FIG. 2C).

[8] = tested on: B16F10 cells; test: Apoptosis of B16F10 cells by flow cytometry and live-cell fluorescence imaging; assay type: cell-based; conditions: GSK126 10 μM
Experimental: as §4, §5

[9] = tested on: melanoma B16F10 cells; test: Fatty acid metabolite levels in B16F10 cells; assay type: cell-based; conditions: GSK126 group
Description: FIG. 3: GSK126 results in significant elevated levels of 6 fatty acids in melanoma B16F10 cells.
Among the metabolites with significant changes, the levels of many fatty acids increased in the GSK126 group. There are five polyunsaturated fatty acids, including α-linolenic acid, DHA, EPA, linoleic acid, and γ-linolenic acid) and one monounsaturated fatty acid, i.e., 10Z-heptadienoic acid (FIG. 3).

[10] = tested on: C57BL/6 mice; test: Lipid accumulation in B16F10 tumor-bearing C57BL/6 mice; assay type: in vivo; conditions: B16F10 tumor-bearing C57BL/6 mice treated with GSK126
Description: (§6) FIG. 4: Lipid accumulation in mice after GSK126 treatment. (A) H & E and oil red O staining of the liver tissue sections of the tumor-bearing mice in the control group and the GSK126 treatment group, in which the statistical results of negative or positive staining area were shown on the right (3 replicates per group); (B) TG level in the serum of the tumor-bearing mice in the control group and the GSK126 treatment group (5 replicates per group); (C-D) mRNA (C) and protein (D) levels of the genes related to fatty acid anabolism in the GSK126-treated HCC cells, as detected by RT-qPCR and WB (3 replicates per group). 3 to 5 replicates were established for each group, with *P<0.05, **P<0.01.
(§7) C57BL/6 mice (6-8 weeks old) were subcutaneously implanted with B16F10 cells and then treated with GSK126. […] Therefore, the expression of fatty acid synthesis-related genes in GSK126-treated hepatocellular carcinoma (HCC) cell lines SMMC7721 and Huh7 was further detected.

[11] = tested on: ACLY, FASN, SCD in SMMC7721 cells; test: RT-qPCR/WB of fatty acid synthesis genes in SMMC7721 cells; assay type: cell-based; conditions: after GSK126 treatment
Description: as §6, §3, §7

[12] = tested on: ACLY, FASN, SCD in Huh7 cells; test: RT-qPCR/WB of fatty acid synthesis genes in Huh7 cells; assay type: cell-based; conditions: after GSK126 treatment
Description: as §6, §7

[13] = tested on: mouse brain glioma cell line (GL261); test: IncuCyte S3 live-cell proliferation of GL261 cells; assay type: cell-based
Experimental: 3 to 6 replicates were established for each group, with *P<0.05, **P<0.01, and ***P<0.001, and ns for no statistical difference.
IncuCyte S3® Live-Cell Analysis System was used to monitor and analyze the growth of mouse glioma GL261 cells. • (1) GL-261 cells in logarithmic growth phase were prepared into a single cell suspension, and the cells were counted; • (2) GL261 cells were added into a 96-well plate at a density of 8x10^4 cells/mL, with 4-6 replicate wells per each group; • (3) The 96-well plate was then placed in an incubator for another 12-24 hours, and the plate was refreshed with a culture medium containing the drug at the cell confluence of about 20-30%. GSK126 and fenofibrate (FF) were serially diluted using the medium; • (4) The 96-well plate was then placed in the incubator suitable for the instrument, and detected with IncuCyte S3® Live-Cell Analysis System. Cell growth images of 4 different areas in each well were taken at an interval of 4 h using a 10× objective lens. • (5) The plate was real-time monitored for 48 h, and the cell confluence was determined by defining the cell edge using IncuCyte S3 image analysis software and normalized to the cell confluence at 0 h. […]

[14] = tested on: hematologic cancer cell lines; conditions: most hematologic cancer cell lines; many studies; read-out: IC50 (half-maximal inhibitory concentration); cited from earlier work
[15] = tested on: human glioma cells U87; test: Incucyte real-time proliferation of U87 cells; assay type: cell-based; conditions: telmisartan at different concentrations
Experimental: (§8) P=0.0108, P=0.0385, Kaplan-Meier survival analysis; (C) effect of telmisartan at different concentrations on the proliferation of U87 cells (left) and U251 cells (right) (3 replicates per group); (D) effect of fenofibrate at different concentrations on the proliferation of B16F10 cells (left) and 4T1 cells (right) (3 replicates per group); (E) FACS quantitative analysis of the percentage of cells positive for EdU (FITC+) staining 48 h after the telmisartan treatment on U87 and U251 cells. Single cells were first gated, followed by FITC+cells. The percentage of FITC+ cells was listed above the corresponding cell population. 3 replicates were established for each group, with *P<0.05, **P<0.01, ***P<0.001, and ****P<0.0001, and ns for no statistical difference.
(§9) Therefore, telmisartan and fenofibrate were selected to explore whether lipid metabolism-regulating drugs have anti-tumor effects. […] The effect of telmisartan (50 μM) on cell proliferation was further verified by EdU staining.

[16] = tested on: human glioma cells U251; test: Incucyte real-time proliferation of U251 cells; assay type: cell-based; conditions: telmisartan at different concentrations
Experimental: as §8, §9

[17] = tested on: U87 cells; test: EdU staining with flow cytometry, U87; assay type: cell-based, human; conditions: telmisartan 50 μM, 48 h, 24.25% before treatment
Experimental: as §8, §9

[18] = tested on: U251 cells; test: EdU staining with flow cytometry, U251; assay type: cell-based, human; conditions: telmisartan 50 μM, 48 h, 41.44% before treatment
Experimental: as §8, §9

[19] = GSK126 at different concentrations (10-20 μM)

CC[C@H](C)n1cc(C)c2c(C(=O)NCc3c(C)cc(C)[nH]c3=O)cc(-c3ccc(N4CCNCC4)nc3)cc21 [GSK126]
cell proliferation ([1]; GSK126 10 μM): less effective | cell proliferation [1, 19]: inhibited cell proliferation in a dose-dependent manner | cell proliferation ([2]; GSK126 10 μM): less effective | cell proliferation [2, 19]: inhibited cell proliferation in a dose-dependent manner | cell proliferation ([3]; GSK126 10 μM): less effective | cell proliferation [3, 19]: inhibited cell proliferation in a dose-dependent manner | sensitivity (CCK-8 proliferation) ([4]; 1 μM GSK126): very sensitive | proliferation (CCK-8) ([4]; 10 μM GSK126 for 24 h and 48 h): significantly inhibited | proliferation (CCK-8) [5]: significantly inhibited | H3K27me3 level [6]: significantly down-regulated | cell migration [7]: did not effectively inhibit cell migration | apoptosis rate [8]: limited capability to induce apoptosis | levels of fatty acids (α-linolenic acid, DHA, EPA, linoleic acid, γ-linolenic acid, 10Z-heptadienoic acid) [9]: increased | fat vacuoles and lipid deposition in liver tissue sections (H & E and oil red O staining) [10]: significant increase | levels of triglycerides (TG) in blood [10]: significantly elevated | mRNA and protein levels of ACLY, FASN, and SCD [11]: significantly elevated | mRNA and protein levels of ACLY, FASN, and SCD [12]: significantly elevated | inhibitory effect on cell proliferation ([13]; GSK126 20 μM alone, compared with 40 μM or combination): can not achieved | inhibitory effect on cell proliferation ([13]; GSK126 40 μM, compared with GSK126 20 μM + fenofibrate 10 μM): the same as that of the combination | IC50 [14]: < 1000 nM

CCCc1nc2c(C)cc(-c3nc4ccccc4n3C)cc2n1Cc1ccc(-c2ccccc2C(=O)O)cc1 [telmisartan]
cell proliferation [15]: inhibit the proliferation | cell proliferation [16]: inhibit the proliferation | percentage of EdU+ cells [17]: 21.16% | percentage of EdU+ cells [18]: 38.78%
